In ChEMBL document CHEMBL1131247, “Substituted naphthofurans as hallucinogenic phenethylamine-ergoline hybrid molecules with unexpected muscarinic antagonist activity” (J Med Chem, 1998):
Where “and” joins values, the source holds several entries; their conditions need not be identical. Identical values can stand only once. Calls of active or inactive are those of the source. The calls are words filed in the database; no cut-off is given here.

Key:
Rattus norvegicus [1] = assay: Percentage of animals emitting 50 presses on the LSD appropriate lever during the test period in rat at 1.46 mg/kg (4 umol/kg); assay type: functional
Rattus norvegicus [2] = species on record: Rattus norvegicus; assay: Percentage of animals emitting 50 presses on the LSD appropriate lever during the test period; assay type: functional
[3] = biological target: T1, 5-hydroxytryptamine receptor 2C (Homo sapiens, UniProt P28335); assay: Binding ability of compound at cloned human 5-hydroxytryptamine 2C receptor using [3H]- mesulergine as radioligand
T1 sequence (P28335 whole entry): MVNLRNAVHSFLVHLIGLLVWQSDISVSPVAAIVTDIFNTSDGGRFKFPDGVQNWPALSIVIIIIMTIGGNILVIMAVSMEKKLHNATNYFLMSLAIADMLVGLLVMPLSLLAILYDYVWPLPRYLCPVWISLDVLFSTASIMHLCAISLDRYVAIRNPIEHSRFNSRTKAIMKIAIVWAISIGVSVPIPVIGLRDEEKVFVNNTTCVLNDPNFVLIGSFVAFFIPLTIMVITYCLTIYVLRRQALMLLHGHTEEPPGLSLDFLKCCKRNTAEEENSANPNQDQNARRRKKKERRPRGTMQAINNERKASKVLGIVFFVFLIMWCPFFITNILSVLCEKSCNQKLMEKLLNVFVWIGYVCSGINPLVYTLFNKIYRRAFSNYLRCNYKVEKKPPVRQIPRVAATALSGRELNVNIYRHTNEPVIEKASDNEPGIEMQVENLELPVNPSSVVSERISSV

Rattus norvegicus [4] = species on record: Rattus norvegicus; assay: (§1) Effective dose for LSD-like behavioral effect in rats; Not significant; assay type: functional, organism-based
Rattus norvegicus [5] = assay: Percentage of animal emitting 50 presses on the LSD appropriate lever during the test period in rat at 0.365 mg/kg (1 uM/kg); assay type: functional
Rattus norvegicus [6] = assay: Percentage of animals failing to emit 50 presses on either lever within the 15-min test period in rat at 2.92 mg/kg (8 umol/kg); assay type: functional
[7] = biological target: T2, Muscarinic acetylcholine receptor M1 (Mus musculus) (UniProt P12657)
T2 sequence (whole entry): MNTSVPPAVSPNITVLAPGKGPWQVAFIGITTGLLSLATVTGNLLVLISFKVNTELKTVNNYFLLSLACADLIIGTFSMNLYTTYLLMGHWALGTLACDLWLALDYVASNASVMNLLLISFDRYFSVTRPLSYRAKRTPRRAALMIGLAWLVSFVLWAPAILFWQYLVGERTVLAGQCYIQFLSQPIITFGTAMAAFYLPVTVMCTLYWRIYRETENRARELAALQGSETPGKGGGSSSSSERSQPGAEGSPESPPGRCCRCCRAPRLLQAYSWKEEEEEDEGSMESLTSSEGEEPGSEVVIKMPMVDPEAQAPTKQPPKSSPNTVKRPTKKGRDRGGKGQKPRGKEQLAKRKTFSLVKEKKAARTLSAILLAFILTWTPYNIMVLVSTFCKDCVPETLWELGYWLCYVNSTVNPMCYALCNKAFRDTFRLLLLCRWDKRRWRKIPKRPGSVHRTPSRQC

Rattus norvegicus [8] = assay: Percentage of animals failing to emit 50 presses on either lever within the 15-min test period in rat at 0.78 mg/kg(2 uM/kg); assay type: functional
Rattus norvegicus [9] = assay: Percentage of animals failing to emit 50 presses on either lever within the 15-min test period in rat at 5.84 mg/kg (16 umol/kg); assay type: functional
[10] = biological target: T3, 5-hydroxytryptamine receptor 2A (Homo sapiens, UniProt P28223); assay: Binding ability of compound at cloned human 5-hydroxytryptamine 2A receptor using [125 I]DOI as radioligand
[11] = biological target: T4, Muscarinic acetylcholine receptor M5 (Rattus norvegicus) (UniProt P08911)
T4 sequence (whole entry): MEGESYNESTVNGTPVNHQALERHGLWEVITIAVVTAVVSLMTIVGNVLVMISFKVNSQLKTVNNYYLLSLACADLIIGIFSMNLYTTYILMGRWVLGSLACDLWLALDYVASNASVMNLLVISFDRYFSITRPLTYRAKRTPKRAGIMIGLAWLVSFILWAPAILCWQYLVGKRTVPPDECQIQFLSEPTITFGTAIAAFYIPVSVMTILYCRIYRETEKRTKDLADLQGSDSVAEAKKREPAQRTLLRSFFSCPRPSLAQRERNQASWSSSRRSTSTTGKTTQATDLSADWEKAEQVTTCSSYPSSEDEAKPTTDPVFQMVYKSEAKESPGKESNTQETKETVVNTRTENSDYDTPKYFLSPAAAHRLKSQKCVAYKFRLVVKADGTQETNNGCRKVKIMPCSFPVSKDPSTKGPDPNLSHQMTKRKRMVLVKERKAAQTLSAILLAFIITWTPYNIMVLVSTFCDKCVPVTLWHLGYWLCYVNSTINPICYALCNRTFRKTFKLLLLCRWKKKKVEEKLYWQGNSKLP

[12] = biological target: T5, 5-hydroxytryptamine receptor 2B (Homo sapiens, UniProt P41595); assay: Binding ability of compound at cloned human 5-hydroxytryptamine 2B receptor using [3H]5-HT 2B as radioligand
Rattus norvegicus [13] = assay: Percentage of animals failing to emit 50 presses on either lever within the 15-min test period in rat at 0.365 mg/kg (1 uM/kg); assay type: functional
[14] = biological target: 5-hydroxytryptamine receptor 2A (Rattus norvegicus, UniProt P14842); assay: Affinity at [3H]ketanserin-labeled 5-hydroxytryptamine 2A receptor in rat brain homogenate was determined; assay type: tissue-based
[15] = biological target: T6, Muscarinic acetylcholine receptor M2 (Rattus norvegicus) (UniProt P10980)
T6 sequence (whole entry): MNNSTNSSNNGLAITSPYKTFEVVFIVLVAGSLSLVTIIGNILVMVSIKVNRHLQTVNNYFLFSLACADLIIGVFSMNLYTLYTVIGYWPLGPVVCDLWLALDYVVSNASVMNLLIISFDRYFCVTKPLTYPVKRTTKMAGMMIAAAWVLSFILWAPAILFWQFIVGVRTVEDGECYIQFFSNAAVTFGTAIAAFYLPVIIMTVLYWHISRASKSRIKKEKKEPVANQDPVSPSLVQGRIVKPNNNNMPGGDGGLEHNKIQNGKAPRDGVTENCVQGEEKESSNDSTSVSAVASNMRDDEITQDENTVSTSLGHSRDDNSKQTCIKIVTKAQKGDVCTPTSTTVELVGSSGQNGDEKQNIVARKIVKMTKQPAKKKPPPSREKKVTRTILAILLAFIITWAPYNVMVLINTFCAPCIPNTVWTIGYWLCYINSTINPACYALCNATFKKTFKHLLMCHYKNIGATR

[16] = biological target: Muscarinic acetylcholine receptor M3 (Rattus norvegicus) (UniProt P08483)
Rattus norvegicus [17] = assay: Percentage of animals emitting 50 presses on the LSD appropriate lever during the test period in rat at 0.78 mg/kg(2 uM/kg); assay type: functional
Rattus norvegicus [18] = assay: Percentage of animals emitting 50 presses on the LSD appropriate lever during the test period in rat at 5.84 mg/kg (16 umol/kg); assay type: functional
Rattus norvegicus [19] = assay: Percentage of animals failing to emit 50 presses on either lever within the 15-min test period in rat at 1.46 mg/kg (4 umol/kg); assay type: functional
[20] = biological target: T5, 5-hydroxytryptamine receptor 2B; assay: Binding ability of compound at cloned human 5-hydroxytryptamine 2B receptor using [3H]- rauwolscine as radioligand
Rattus norvegicus [21] = species on record: Rattus norvegicus; assay: as §1; assay type: functional, organism-based; remark: listed apart in the source
[22] = biological target: T1, 5-hydroxytryptamine receptor 2C; assay: Binding ability of compound at cloned human 5-hydroxytryptamine 2C receptor using [125 I]DOI as radioligand
[23] = biological target: T7, Muscarinic acetylcholine receptor M4 (Rattus norvegicus) (UniProt P08485)
T7 sequence (whole entry): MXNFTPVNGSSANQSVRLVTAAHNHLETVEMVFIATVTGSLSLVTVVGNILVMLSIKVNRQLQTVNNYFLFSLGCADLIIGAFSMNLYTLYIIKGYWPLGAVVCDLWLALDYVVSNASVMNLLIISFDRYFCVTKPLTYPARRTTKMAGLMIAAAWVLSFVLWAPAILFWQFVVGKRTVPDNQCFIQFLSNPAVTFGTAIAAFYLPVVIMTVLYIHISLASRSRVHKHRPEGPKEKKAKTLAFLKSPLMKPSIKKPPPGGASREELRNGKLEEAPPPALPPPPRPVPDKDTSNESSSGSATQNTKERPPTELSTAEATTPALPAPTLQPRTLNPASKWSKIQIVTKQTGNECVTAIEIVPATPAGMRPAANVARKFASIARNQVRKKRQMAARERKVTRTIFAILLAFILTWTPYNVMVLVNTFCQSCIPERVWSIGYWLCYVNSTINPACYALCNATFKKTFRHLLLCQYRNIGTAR

[24] = biological target: T3, 5-hydroxytryptamine receptor 2A; assay: Binding ability of compound at cloned human 5-hydroxytryptamine 2A receptor using [3H]ketanserin as radioligand
Rattus norvegicus [25] = species on record: Rattus norvegicus; assay: Effective dose for LSD-like behavioral effect in rats; assay type: functional
[26] = biological target: T8, 5-hydroxytryptamine receptor 1A (Rattus norvegicus, UniProt P19327); assay: Affinity at [3H]8-OH-DPAT-labeled 5-hydroxytryptamine 1A receptor in rat brain homogenate was determined; assay type: tissue-based
T8 sequence (P19327 whole entry): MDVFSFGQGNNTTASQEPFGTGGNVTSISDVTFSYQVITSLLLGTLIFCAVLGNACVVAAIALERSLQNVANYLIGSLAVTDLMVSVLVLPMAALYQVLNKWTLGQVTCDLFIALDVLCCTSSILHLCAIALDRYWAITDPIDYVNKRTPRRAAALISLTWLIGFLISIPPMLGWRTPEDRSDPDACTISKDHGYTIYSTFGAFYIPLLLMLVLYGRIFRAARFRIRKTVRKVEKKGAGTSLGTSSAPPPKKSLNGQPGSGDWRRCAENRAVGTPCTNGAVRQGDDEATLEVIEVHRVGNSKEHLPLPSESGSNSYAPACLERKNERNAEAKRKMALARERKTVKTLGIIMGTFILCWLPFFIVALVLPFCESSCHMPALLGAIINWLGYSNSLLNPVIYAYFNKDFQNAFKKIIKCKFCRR

Rattus norvegicus [27] = assay: Percentage of animals failing to emit 50 presses on either lever within the 15-min test period in rat at 0.02 mg/kg(0.046 uM/kg); assay type: functional
Rattus norvegicus [28] = assay: Percentage of animals failing to emit 50 presses on either lever within the 15-min test period in rat at 0.04 mg/kg (0.093 uM/kg); assay type: functional
Rattus norvegicus [29] = assay: Percentage of animals emitting 50 presses on the LSD appropriate lever during the test period in rat at 0.01 mg/kg (0.023 uM/kg); assay type: functional
Rattus norvegicus [30] = assay: Percentage of animals failing to emit 50 presses on either lever within the 15-min test period in rat at 0.01 mg/kg (0.023 uM/kg); assay type: functional
Rattus norvegicus [31] = assay: Percentage of animals emitting 50 presses on the LSD appropriate lever during the test period in rat at 0.02 mg/kg(0.046 uM/kg); assay type: functional
Rattus norvegicus [32] = assay: Percentage of animals emitting 50 presses on the LSD appropriate lever during the test period i8n at 0.04 mg/kg (0.093 uM/kg); assay type: functional
Rattus norvegicus [33] = assay: Percentage of animals failing to emit 50 presses on either lever within the 15-min test period in rat at 0.08 mg/kg (0.186 uM/kg); assay type: functional
Rattus norvegicus [34] = assay: Percentage of animals emitting 50 presses on the LSD appropriate lever during the test period in at 0.08 mg/kg (0.186 uM/kg); assay type: functional

Chain of Muscarinic acetylcholine receptor M3 (Rattus norvegicus) (P08483 whole entry, looked up): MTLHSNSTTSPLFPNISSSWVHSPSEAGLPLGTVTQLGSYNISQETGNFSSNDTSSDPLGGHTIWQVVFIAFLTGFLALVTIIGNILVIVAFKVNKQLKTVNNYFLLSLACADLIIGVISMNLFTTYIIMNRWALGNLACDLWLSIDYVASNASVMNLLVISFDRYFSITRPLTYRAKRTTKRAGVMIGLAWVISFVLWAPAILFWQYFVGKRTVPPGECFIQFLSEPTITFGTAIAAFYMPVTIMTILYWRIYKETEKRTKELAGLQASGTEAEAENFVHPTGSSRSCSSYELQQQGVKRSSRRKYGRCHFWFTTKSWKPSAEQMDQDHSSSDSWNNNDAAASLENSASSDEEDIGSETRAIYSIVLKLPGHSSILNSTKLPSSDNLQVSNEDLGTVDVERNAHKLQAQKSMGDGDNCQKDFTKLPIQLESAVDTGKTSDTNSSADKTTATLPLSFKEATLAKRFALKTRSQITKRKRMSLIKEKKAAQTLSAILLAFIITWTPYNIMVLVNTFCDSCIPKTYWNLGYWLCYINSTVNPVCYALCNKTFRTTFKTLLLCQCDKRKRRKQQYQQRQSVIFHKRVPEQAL
T3 sequence (P28223 whole entry): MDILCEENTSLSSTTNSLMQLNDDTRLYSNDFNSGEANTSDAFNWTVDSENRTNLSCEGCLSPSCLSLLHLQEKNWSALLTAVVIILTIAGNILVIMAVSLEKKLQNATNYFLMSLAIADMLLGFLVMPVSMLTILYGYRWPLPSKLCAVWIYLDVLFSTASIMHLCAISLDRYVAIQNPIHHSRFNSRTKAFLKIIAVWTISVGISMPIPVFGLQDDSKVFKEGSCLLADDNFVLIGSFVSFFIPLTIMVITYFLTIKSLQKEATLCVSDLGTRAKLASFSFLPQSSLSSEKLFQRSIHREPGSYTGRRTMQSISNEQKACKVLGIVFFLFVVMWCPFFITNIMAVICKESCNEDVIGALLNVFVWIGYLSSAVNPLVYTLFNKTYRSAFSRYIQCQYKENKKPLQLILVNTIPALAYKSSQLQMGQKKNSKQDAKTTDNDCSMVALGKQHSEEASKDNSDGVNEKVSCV
T5 sequence (P41595 whole entry): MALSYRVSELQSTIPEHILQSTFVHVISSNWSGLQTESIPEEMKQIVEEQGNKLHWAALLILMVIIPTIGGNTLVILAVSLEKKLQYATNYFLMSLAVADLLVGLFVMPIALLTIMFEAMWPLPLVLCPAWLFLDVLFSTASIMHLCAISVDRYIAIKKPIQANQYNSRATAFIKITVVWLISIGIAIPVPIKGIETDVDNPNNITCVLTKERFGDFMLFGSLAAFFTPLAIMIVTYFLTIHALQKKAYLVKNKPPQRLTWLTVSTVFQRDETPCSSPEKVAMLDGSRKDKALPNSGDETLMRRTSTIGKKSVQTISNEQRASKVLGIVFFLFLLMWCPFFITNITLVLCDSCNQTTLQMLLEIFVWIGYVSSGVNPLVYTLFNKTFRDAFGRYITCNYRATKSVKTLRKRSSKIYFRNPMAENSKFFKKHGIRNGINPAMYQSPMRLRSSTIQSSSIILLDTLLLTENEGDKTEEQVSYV
Chain of 5-hydroxytryptamine receptor 2A (Rattus norvegicus, UniProt P14842) (P14842 whole entry): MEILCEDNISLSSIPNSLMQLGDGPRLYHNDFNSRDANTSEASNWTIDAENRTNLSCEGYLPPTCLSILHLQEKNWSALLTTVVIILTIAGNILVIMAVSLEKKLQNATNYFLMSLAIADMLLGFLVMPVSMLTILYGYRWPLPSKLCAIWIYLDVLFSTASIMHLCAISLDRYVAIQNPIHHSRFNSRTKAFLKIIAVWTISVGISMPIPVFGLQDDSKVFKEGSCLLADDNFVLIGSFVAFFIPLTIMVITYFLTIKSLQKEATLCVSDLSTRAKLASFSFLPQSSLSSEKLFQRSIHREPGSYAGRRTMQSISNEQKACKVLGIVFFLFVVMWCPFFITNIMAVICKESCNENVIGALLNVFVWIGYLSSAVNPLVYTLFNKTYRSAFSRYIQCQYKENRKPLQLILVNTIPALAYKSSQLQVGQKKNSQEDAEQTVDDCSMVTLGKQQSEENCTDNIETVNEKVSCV

COc1cc(Br)c2c3c1C[C@H](N)C[C@@H]3CO2
SDL (Rattus norvegicus [1]): 10%
SDL (Rattus norvegicus [2]): 33%
Ki [3]: 89.6 nM
ED50 (Rattus norvegicus [4]): inactive
SDL (Rattus norvegicus [5]): 0%
D (Rattus norvegicus [6]): 0%
K 0.5 [7]: 20 nM
D (Rattus norvegicus [8]): 0%
D (Rattus norvegicus [9]): 15%
Ki [10]: 13 nM
K 0.5 [11]: 33 nM
Ki [12]: 263 nM
D (Rattus norvegicus [13]): 0%
Ki [14]: 1050 nM
K 0.5 [15]: 41 nM
K 0.5 [16]: 12 nM
SDL (Rattus norvegicus [17]): 0%
SDL (Rattus norvegicus [18]): 44%
D (Rattus norvegicus [19]): 0%
Ki [20]: 255 nM
ED50 (Rattus norvegicus [21]): inactive
Ki [22]: 5.96 nM
K 0.5 [23]: 30 nM
Ki [24]: 240 nM

COc1cc(C[C@@H](C)N)c(OC)cc1Br
ED50 (Rattus norvegicus [25]): 1.12 mg/kg
Ki [26]: 6.1 µM

CCN(CC)C(=O)[C@@H]1C=C2c3cccc4[nH]cc(c34)C[C@H]2N(C)C1 [LYSERGIDE]
ED50 (Rattus norvegicus [25]): 0.037 µmol/kg and 0.016 mg/kg
D (Rattus norvegicus [27]): 7%
D (Rattus norvegicus [28]): 0%
SDL (Rattus norvegicus [29]): 31%
D (Rattus norvegicus [30]): 0%
SDL (Rattus norvegicus [31]): 62%
SDL (Rattus norvegicus [32]): 81%
D (Rattus norvegicus [33]): 0%
SDL (Rattus norvegicus [34]): 100%

CN1[C@@H]2CC[C@H]1C[C@@H](OC(=O)C(CO)c1ccccc1)C2 (stereo not given in full)
K 0.5 [7]: 0.6 nM
K 0.5 [11]: 0.7 nM
K 0.5 [15]: 1.8 nM
K 0.5 [16]: 0.6 nM
K 0.5 [23]: 0.5 nM
